Assay results taken from PubChem BioAssay (NCI).
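Each compound was tested at five concentrations against cells in 96-well plates for 48 hours. TGI: total growth inhibition.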

What was measured:
Experiment in all cases: inhibition of tumour cell growth, NCI panel, 48 h
SR leukemia = test system: SR leukemia
MDA-MB-231 breast = test system: MDA-MB-231 breast
MALME-3M melanoma = test system: MALME-3M melanoma
NCI-H460 lung = test system: NCI-H460 lung
HT29 colon = test system: HT29 colon
SW-620 colon = test system: SW-620 colon
OVCAR-8 ovarian = test system: OVCAR-8 ovarian
TK-10 renal = test system: TK-10 renal
ACHN renal = test system: ACHN renal
HCT-15 colon = test system: HCT-15 colon

COC(=O)C(Cc1ccccc1)NP(=O)(O)OCC1OC(n2cc(F)c(=O)[nH]c2=O)CC1O (stereo unspecified)
TGI (SR leukemia): > 56.5 µM | TGI (MDA-MB-231 breast): > 100 µM | TGI (MALME-3M melanoma): > 100 µM | TGI (NCI-H460 lung): > 100 µM | TGI (HT29 colon): > 100 µM | TGI (SW-620 colon): > 100 µM | TGI (OVCAR-8 ovarian): > 100 µM | TGI (TK-10 renal): > 100 µM | TGI (ACHN renal): > 100 µM | TGI (HCT-15 colon): > 100 µM

COc1c(O)cc(O)c2c(=O)cc(-c3ccccc3)oc12
TGI (SR leukemia): > 100 µM | TGI (MDA-MB-231 breast): > 100 µM | TGI (MALME-3M melanoma): > 100 µM | TGI (NCI-H460 lung): > 100 µM | TGI (HT29 colon): > 100 µM | TGI (SW-620 colon): > 100 µM | TGI (OVCAR-8 ovarian): > 100 µM | TGI (TK-10 renal): > 100 µM | TGI (ACHN renal): > 100 µM | TGI (HCT-15 colon): > 100 µM

C=C(C)C(O)C(O)c1c(OC)ccc2ccc(=O)oc12 (stereo unspecified)
TGI (SR leukemia): > 100 µM | TGI (MDA-MB-231 breast): > 100 µM | TGI (MALME-3M melanoma): > 100 µM | TGI (NCI-H460 lung): > 100 µM | TGI (HT29 colon): > 100 µM | TGI (SW-620 colon): > 100 µM | TGI (OVCAR-8 ovarian): > 100 µM | TGI (TK-10 renal): > 100 µM | TGI (ACHN renal): > 100 µM | TGI (HCT-15 colon): > 100 µM

CC1(O)CC(=O)c2c(cc3ccc(-c4c5c(c(O)c6c(O)cccc46)C(=O)CC(C)(O)C5)c(O)c3c2O)C1 (stereo unspecified)
TGI (SR leukemia): 7.06 µM | TGI (MDA-MB-231 breast): 3.93 µM | TGI (MALME-3M melanoma): 1.61 µM | TGI (NCI-H460 lung): 5.64 µM | TGI (HT29 colon): 3.96 µM | TGI (SW-620 colon): 18.9 µM | TGI (OVCAR-8 ovarian): 3.76 µM | TGI (TK-10 renal): 10.3 µM | TGI (ACHN renal): 11 µM | TGI (HCT-15 colon): 4.08 µM

O=C(O)c1ccn(-c2cccc(-n3ccc(C(=O)O)n3)n2)n1
TGI (SR leukemia): > 100 µM | TGI (MDA-MB-231 breast): > 100 µM | TGI (MALME-3M melanoma): > 100 µM | TGI (NCI-H460 lung): > 100 µM | TGI (HT29 colon): > 100 µM | TGI (SW-620 colon): > 100 µM | TGI (OVCAR-8 ovarian): > 100 µM | TGI (TK-10 renal): > 100 µM | TGI (ACHN renal): > 100 µM | TGI (HCT-15 colon): > 100 µM

COc1cc(C(C)c2cc3c(cc2OCCO)OCO3)cc(OC)c1OC (stereo unspecified)
TGI (SR leukemia): 0.932 µM | TGI (MALME-3M melanoma): > 100 µM | TGI (NCI-H460 lung): > 100 µM | TGI (HT29 colon): > 100 µM | TGI (SW-620 colon): > 100 µM | TGI (OVCAR-8 ovarian): > 100 µM | TGI (TK-10 renal): > 100 µM | TGI (ACHN renal): > 100 µM | TGI (HCT-15 colon): > 100 µM

CCNC(=O)c1cc(/C=C/c2ccc([N+](=O)[O-])o2)nc2ccccc12
TGI (SR leukemia): > 100 µM | TGI (MDA-MB-231 breast): > 100 µM | TGI (MALME-3M melanoma): > 52.5 µM | TGI (NCI-H460 lung): 17.4 µM | TGI (HT29 colon): > 100 µM | TGI (SW-620 colon): > 100 µM | TGI (OVCAR-8 ovarian): > 100 µM | TGI (TK-10 renal): > 91.9 µM | TGI (ACHN renal): > 100 µM | TGI (HCT-15 colon): > 100 µM

S=C1SCN(Cc2ccco2)CN1c1ccc(Br)cc1
TGI (SR leukemia): 31.4 µM | TGI (MALME-3M melanoma): 35.3 µM | TGI (NCI-H460 lung): 28.5 µM | TGI (HT29 colon): 39.5 µM | TGI (SW-620 colon): 62.3 µM | TGI (OVCAR-8 ovarian): 93.9 µM | TGI (TK-10 renal): 65.9 µM | TGI (ACHN renal): 64.2 µM | TGI (HCT-15 colon): 26.9 µM

CCOC(=O)c1cnc2oc3ccc(O)cc3c2c1-c1ccccc1
TGI (SR leukemia): > 100 µM | TGI (MDA-MB-231 breast): 84.5 µM | TGI (MALME-3M melanoma): > 100 µM | TGI (NCI-H460 lung): > 100 µM | TGI (HT29 colon): > 100 µM | TGI (SW-620 colon): > 100 µM | TGI (OVCAR-8 ovarian): > 100 µM | TGI (TK-10 renal): > 100 µM | TGI (ACHN renal): > 100 µM | TGI (HCT-15 colon): > 100 µM

CCOc1cc(C2CC(c3ccc(NS(=O)(=O)c4cc([N+](=O)[O-])ccc4C)cc3)=NN2c2ccc([N+](=O)[O-])cc2[N+](=O)[O-])ccc1O (stereo unspecified)
TGI (SR leukemia): > 100 µM | TGI (MDA-MB-231 breast): 20.6 µM | TGI (MALME-3M melanoma): 23.2 µM | TGI (HT29 colon): > 100 µM | TGI (SW-620 colon): > 100 µM | TGI (OVCAR-8 ovarian): 49 µM | TGI (TK-10 renal): 33.7 µM | TGI (ACHN renal): 21.7 µM | TGI (HCT-15 colon): > 100 µM

C[C@H]1C[C@H]2[C@@H]3C(C)(C)O[C@]4(O)C(=O)[C@]5(O)[C@@H](C)CC[C@H]1[C@]25C(=O)[C@]34C
TGI (SR leukemia): 96.6 µM | TGI (MDA-MB-231 breast): > 100 µM | TGI (NCI-H460 lung): > 100 µM | TGI (HT29 colon): 70.3 µM | TGI (SW-620 colon): > 100 µM | TGI (OVCAR-8 ovarian): > 100 µM | TGI (ACHN renal): 72.6 µM | TGI (HCT-15 colon): > 100 µM

O=c1ccn(CC2(CO)CC(Cc3ccccc3)C2)c(=O)[nH]1 (stereo unspecified)
TGI (SR leukemia): > 100 µM | TGI (MDA-MB-231 breast): > 100 µM | TGI (MALME-3M melanoma): > 100 µM | TGI (NCI-H460 lung): > 100 µM | TGI (HT29 colon): > 100 µM | TGI (SW-620 colon): > 100 µM | TGI (OVCAR-8 ovarian): > 100 µM | TGI (TK-10 renal): > 100 µM | TGI (ACHN renal): > 100 µM | TGI (HCT-15 colon): > 100 µM

CC1(C)CC(=O)c2c(nc3ccc4ccccc4c3c2-c2ccc(NC(=O)CCCCCCCCC(=O)Nc3ccc(-c4c5c(nc6ccc7ccccc7c46)CC(C)(C)CC5=O)cc3)cc2)C1
TGI (SR leukemia): > 100 µM | TGI (MDA-MB-231 breast): > 100 µM | TGI (NCI-H460 lung): > 100 µM | TGI (HT29 colon): > 100 µM | TGI (SW-620 colon): > 100 µM | TGI (OVCAR-8 ovarian): > 100 µM | TGI (TK-10 renal): > 100 µM | TGI (ACHN renal): > 100 µM | TGI (HCT-15 colon): > 100 µM

COc1cc2cc[n+]3c(C)c4cc(OC)c(OC)cc4c([O-])c3c2cc1OC
TGI (SR leukemia): > 100 µM | TGI (MALME-3M melanoma): 79.7 µM | TGI (NCI-H460 lung): > 100 µM | TGI (HT29 colon): > 100 µM | TGI (SW-620 colon): > 100 µM | TGI (OVCAR-8 ovarian): > 100 µM | TGI (TK-10 renal): > 100 µM | TGI (ACHN renal): > 100 µM | TGI (HCT-15 colon): > 100 µM

CC(=O)Nc1ccc(OC2=CCN(C)CC2)cc1
TGI (SR leukemia): > 100 µM | TGI (MDA-MB-231 breast): > 100 µM | TGI (MALME-3M melanoma): > 100 µM | TGI (NCI-H460 lung): > 100 µM | TGI (HT29 colon): > 100 µM | TGI (SW-620 colon): > 100 µM | TGI (OVCAR-8 ovarian): > 100 µM | TGI (TK-10 renal): > 100 µM | TGI (ACHN renal): > 100 µM | TGI (HCT-15 colon): > 100 µM

Cc1nc2c(sc(=S)n2-c2ccccc2)c(=O)[nH]1
TGI (SR leukemia): > 100 µM | TGI (MALME-3M melanoma): > 100 µM | TGI (NCI-H460 lung): > 100 µM | TGI (HT29 colon): > 100 µM | TGI (SW-620 colon): > 100 µM | TGI (OVCAR-8 ovarian): > 100 µM | TGI (TK-10 renal): > 100 µM | TGI (ACHN renal): > 100 µM

CC1(C)[C@H]2CC[C@]1(C)[C@H](OC(=O)NNC(=O)O[C@@H]1C[C@@H]3CC[C@@]1(C)C3(C)C)C2
TGI (MDA-MB-231 breast): 27.6 µM | TGI (MALME-3M melanoma): 33.8 µM | TGI (NCI-H460 lung): 28.6 µM | TGI (HT29 colon): 20.9 µM | TGI (SW-620 colon): 72.9 µM | TGI (TK-10 renal): 38.6 µM | TGI (ACHN renal): 36.7 µM | TGI (HCT-15 colon): 27.5 µM

CSc1n[nH]c(N)c1C(=O)Nc1ccc(C)cc1
TGI (SR leukemia): > 100 µM | TGI (MDA-MB-231 breast): > 100 µM | TGI (MALME-3M melanoma): > 100 µM | TGI (NCI-H460 lung): > 100 µM | TGI (HT29 colon): > 100 µM | TGI (SW-620 colon): > 100 µM | TGI (TK-10 renal): > 100 µM | TGI (ACHN renal): > 100 µM | TGI (HCT-15 colon): > 100 µM

COc1ccc(C(=O)Cc2ccc(Br)cc2)cc1OC
TGI (SR leukemia): > 100 µM | TGI (MALME-3M melanoma): > 100 µM | TGI (NCI-H460 lung): > 100 µM | TGI (HT29 colon): > 100 µM | TGI (SW-620 colon): > 100 µM | TGI (OVCAR-8 ovarian): > 100 µM | TGI (TK-10 renal): > 100 µM | TGI (ACHN renal): > 100 µM | TGI (HCT-15 colon): > 100 µM

COC(=O)[C@H]1CO[C@H]2C/C(C)=C/CC/C(C)=C/CC[C@@]3(C)O[C@@H]3C[C@H]21
TGI (SR leukemia): 27.1 µM | TGI (MDA-MB-231 breast): 40.6 µM | TGI (NCI-H460 lung): 21.9 µM | TGI (HT29 colon): > 50 µM | TGI (SW-620 colon): 24.2 µM | TGI (OVCAR-8 ovarian): > 50 µM | TGI (TK-10 renal): > 50 µM | TGI (ACHN renal): > 50 µM | TGI (HCT-15 colon): 19.9 µM

COc1ccccc1Cc1nc(-c2ccccc2)nn(C2OC(COC(C)=O)C(OC(C)=O)C(OC(C)=O)C2OC(C)=O)c1=S (stereo unspecified)
TGI (MALME-3M melanoma): 72.3 µM | TGI (NCI-H460 lung): > 73.5 µM | TGI (HT29 colon): > 100 µM | TGI (SW-620 colon): > 100 µM | TGI (OVCAR-8 ovarian): > 100 µM | TGI (HCT-15 colon): 84.6 µM

CC1(c2ccc[n+](Cc3ccccc3)c2)OCCO1
TGI (SR leukemia): > 100 µM | TGI (MALME-3M melanoma): > 100 µM | TGI (NCI-H460 lung): > 100 µM | TGI (HT29 colon): > 100 µM | TGI (SW-620 colon): > 100 µM | TGI (OVCAR-8 ovarian): > 100 µM | TGI (TK-10 renal): > 100 µM | TGI (ACHN renal): > 100 µM | TGI (HCT-15 colon): > 100 µM
